Results: patent publication US20170266155A1, “METHOD FOR ENHANCING THE OXYGENATION LEVEL OF TISSUE CELLS AS AN ALTERNATIVE METHOD FOR HYPERBARIC OXYGEN THERAPY” (National Sun Yat-sen University, priority 2016, published 2017)
One block for each molecule: values may come before it.

Molecular target: hemoglobin (Hb) (Homo sapiens, UniProt P68871+P69905)
Test: Oxygen equilibrium curves and P50 value of hemoglobin (Hb)
Format: biochemical
Details: for effect of phthalide compound together with 2,3-BPG on oxygen release efficiency of hemoglobin (Hb): combined with 2,3-BPG (FIG. 1)
Description: The oxygen affinity of hemoglobin (Hb) is commonly characterized by P50 value. The P50 value is the required oxygen partial pressure to achieve 50% oxygen saturation of hemoglobin. […] An increased blood PCO2, a decreased pH or an increased 2,3-BPG level in erythrocytes can all decrease the oxygen affinity of hemoglobin (Hb), so that the oxygen equilibrium curve shifts to the right and the P50 value increases (as shown in FIG. 2); contrarily, when the oxygen affinity of hemoglobin (Hb) increases, the oxygen equilibrium curve shifts to the left and the P50 value decreases.
The oxygen affinity of hemoglobin (Hb) was commonly characterized by P50 value. The P50 value was the required oxygen partial pressure to achieve 50% oxygen saturation for hemoglobin. […] An increased blood PCO2, a decreased pH or an increased 2,3-BPG concentration in erythrocytes could decrease the oxygen affinity of hemoglobin (Hb), as a result, the oxygen equilibrium curve shifted to the right and the P50 value increased (as shown in FIG. 2); contrarily, when the oxygen affinity of hemoglobin (Hb) increased, the oxygen equilibrium curve shifted to the left and the P50 value decreased.

hemoglobin (Hb), sequence (P69905 2-142 limits assumed): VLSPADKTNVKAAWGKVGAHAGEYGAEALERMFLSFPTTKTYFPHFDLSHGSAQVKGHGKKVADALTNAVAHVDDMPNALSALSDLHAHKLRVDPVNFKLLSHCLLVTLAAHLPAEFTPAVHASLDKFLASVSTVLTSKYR
hemoglobin (Hb), sequence (P68871 2-147 limits assumed): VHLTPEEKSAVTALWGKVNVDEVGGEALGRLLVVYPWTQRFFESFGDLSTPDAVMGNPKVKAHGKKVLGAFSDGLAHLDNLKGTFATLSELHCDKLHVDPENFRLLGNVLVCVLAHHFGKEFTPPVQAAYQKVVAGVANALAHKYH

Compound: CCC/C=C1\OC(=O)C2=C1CCC=C2 [Z-ligustilide]
effect of phthalide compound together with 2,3-BPG on oxygen release efficiency of hemoglobin (Hb): synergistic effect

oxygen saturation fraction of hemoglobin (Hb) (12 mM 2,3-BPG, fixed oxygen partial pressure of 20 mmHg, 80% where no 2,3-BPG is present (FIG. 3)): 35% | oxygen release efficiency of Hb (12 mM 2,3-BPG, oxygen partial pressure 20 mmHg, 20% without 2,3-BPG): 65% | P50 value / shift of oxygen equilibrium curve with concentration (2,3-BPG concentrations 0.2-12 mM (FIG. 3)): the P50 value is higher | oxygen release efficiency (PO2=20 mmHg, 1.2 mM 2,3-BPG alone): 40% | oxygen saturation fraction (PO2=20 mmHg, 1.2 mM 2,3-BPG alone (FIG. 6)): approximately 60% | P50 value of hemoglobin (Hb) (approximately 4 mM 2,3-BPG, no phthalide compound (FIG. 5)): 18.8 mmHg
Compound: O=C(O)C(COP(=O)(O)O)OP(=O)(O)O (stereo not drawn) [2,3-BPG, 2,3-bisphosphorglycerate]

Compound: CCC/C=C1\OC(=O)c2ccccc21 [Z-Butylidenephthalide, Z-butylidenephthalide]
effect on oxygen release efficiency of hemoglobin (Hb) from resulting P50 values (shortest detection time frame (30 minutes) (FIG. 2)): increasing the oxygen release efficiency of hemoglobin (Hb)

Compound: CCC/C=C1\OC(=O)C2=C1CC[C@@H](O)[C@@H]2O [senkyunolide I]
effect of phthalide compound together with 2,3-BPG on oxygen release efficiency of hemoglobin (Hb): synergistic effect
